Data: ChEMBL document CHEMBL4507276 (2021)

How the values were obtained:
[1] = molecular target: 5'-AMP-activated protein kinase catalytic subunit alpha-2 (Homo sapiens) (UniProt P54646); conditions: Compound concentration 1000.0 nM
[2] = tested on: Phosphatidylinositol 4,5-bisphosphate 3-kinase catalytic subunit alpha isoform (Homo sapiens), P42336 [M1043I]; conditions: Compound concentration 1000.0 nM
[3] = molecular target: T1, Mitogen-activated protein kinase kinase kinase kinase 2 (Homo sapiens) (UniProt Q12851); conditions: Compound concentration 1000.0 nM
T1 sequence (whole entry): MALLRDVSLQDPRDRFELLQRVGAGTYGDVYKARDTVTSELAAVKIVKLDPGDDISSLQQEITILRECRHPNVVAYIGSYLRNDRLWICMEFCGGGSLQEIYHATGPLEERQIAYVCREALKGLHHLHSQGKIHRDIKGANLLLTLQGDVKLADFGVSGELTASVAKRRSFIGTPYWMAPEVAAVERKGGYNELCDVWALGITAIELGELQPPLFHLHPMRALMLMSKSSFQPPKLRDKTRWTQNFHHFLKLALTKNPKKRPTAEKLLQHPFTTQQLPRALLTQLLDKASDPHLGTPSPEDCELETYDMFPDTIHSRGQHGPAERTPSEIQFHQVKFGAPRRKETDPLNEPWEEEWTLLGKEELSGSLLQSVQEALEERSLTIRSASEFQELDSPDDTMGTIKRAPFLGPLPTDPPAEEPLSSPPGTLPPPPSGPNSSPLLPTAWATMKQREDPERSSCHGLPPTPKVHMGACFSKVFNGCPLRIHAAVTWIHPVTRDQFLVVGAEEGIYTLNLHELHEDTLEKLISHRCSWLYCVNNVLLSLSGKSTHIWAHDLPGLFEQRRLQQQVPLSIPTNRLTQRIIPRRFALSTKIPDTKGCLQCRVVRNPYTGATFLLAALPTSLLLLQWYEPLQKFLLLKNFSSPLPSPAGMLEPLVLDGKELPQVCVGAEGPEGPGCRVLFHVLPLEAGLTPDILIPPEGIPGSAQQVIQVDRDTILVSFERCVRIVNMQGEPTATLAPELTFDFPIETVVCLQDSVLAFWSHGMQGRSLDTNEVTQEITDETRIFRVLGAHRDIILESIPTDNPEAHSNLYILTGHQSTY

[4] = molecular target: Aurora kinase B (Homo sapiens) (UniProt Q96GD4); conditions: Compound concentration 1000.0 nM
[5] = molecular target: Serine/threonine-protein kinase Nek4 (Homo sapiens) (UniProt P51957); conditions: Compound concentration 1000.0 nM
Sequence of Serine/threonine-protein kinase Nek4 (Homo sapiens) (P51957 whole entry, looked up): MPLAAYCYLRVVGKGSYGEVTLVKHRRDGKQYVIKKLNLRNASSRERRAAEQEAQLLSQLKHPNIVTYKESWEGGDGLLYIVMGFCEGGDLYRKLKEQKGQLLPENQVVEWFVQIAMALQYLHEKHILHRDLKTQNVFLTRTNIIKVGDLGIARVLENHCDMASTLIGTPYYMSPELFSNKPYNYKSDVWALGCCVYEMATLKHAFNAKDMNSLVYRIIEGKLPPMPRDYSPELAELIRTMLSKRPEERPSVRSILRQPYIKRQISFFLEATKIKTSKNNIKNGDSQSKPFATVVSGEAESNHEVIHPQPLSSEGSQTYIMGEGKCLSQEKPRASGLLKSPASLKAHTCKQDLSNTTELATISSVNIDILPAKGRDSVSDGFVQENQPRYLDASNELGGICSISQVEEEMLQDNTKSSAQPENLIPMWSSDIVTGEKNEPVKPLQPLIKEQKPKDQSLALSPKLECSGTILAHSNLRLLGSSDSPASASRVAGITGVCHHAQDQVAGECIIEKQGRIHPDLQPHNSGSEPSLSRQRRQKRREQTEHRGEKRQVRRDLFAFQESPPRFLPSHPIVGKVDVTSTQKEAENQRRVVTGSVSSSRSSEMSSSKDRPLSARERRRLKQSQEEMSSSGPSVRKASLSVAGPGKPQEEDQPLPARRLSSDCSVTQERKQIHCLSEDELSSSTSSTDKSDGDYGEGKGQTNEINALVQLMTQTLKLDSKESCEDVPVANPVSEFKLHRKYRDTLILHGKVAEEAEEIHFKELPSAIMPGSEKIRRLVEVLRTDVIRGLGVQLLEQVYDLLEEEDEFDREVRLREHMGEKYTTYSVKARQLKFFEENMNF

[6] = molecular target: T2, Alpha-2A adrenergic receptor (Homo sapiens) (UniProt P08913); conditions: Compound concentration 10.0 uM
T2 sequence (whole entry): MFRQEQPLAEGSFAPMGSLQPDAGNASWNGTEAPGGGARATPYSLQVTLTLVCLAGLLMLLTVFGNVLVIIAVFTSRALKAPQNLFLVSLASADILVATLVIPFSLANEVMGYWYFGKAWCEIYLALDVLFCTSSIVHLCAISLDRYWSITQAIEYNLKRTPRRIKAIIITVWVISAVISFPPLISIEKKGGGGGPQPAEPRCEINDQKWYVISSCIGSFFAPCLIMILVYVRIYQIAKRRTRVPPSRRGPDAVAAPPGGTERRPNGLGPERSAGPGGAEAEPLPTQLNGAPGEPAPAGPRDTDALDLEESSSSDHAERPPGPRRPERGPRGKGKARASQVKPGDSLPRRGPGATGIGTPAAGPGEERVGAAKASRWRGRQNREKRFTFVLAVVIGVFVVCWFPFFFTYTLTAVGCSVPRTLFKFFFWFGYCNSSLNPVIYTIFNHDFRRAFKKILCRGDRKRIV

[7] = molecular target: Misshapen-like kinase 1 (Homo sapiens) (UniProt Q8N4C8); conditions: Compound concentration 1000.0 nM
[8] = molecular target: Cyclin-dependent kinase 17 (Homo sapiens) (UniProt Q00537); conditions: Compound concentration 1000.0 nM
Sequence of Cyclin-dependent kinase 17 (Homo sapiens) (Q00537 whole entry, looked up): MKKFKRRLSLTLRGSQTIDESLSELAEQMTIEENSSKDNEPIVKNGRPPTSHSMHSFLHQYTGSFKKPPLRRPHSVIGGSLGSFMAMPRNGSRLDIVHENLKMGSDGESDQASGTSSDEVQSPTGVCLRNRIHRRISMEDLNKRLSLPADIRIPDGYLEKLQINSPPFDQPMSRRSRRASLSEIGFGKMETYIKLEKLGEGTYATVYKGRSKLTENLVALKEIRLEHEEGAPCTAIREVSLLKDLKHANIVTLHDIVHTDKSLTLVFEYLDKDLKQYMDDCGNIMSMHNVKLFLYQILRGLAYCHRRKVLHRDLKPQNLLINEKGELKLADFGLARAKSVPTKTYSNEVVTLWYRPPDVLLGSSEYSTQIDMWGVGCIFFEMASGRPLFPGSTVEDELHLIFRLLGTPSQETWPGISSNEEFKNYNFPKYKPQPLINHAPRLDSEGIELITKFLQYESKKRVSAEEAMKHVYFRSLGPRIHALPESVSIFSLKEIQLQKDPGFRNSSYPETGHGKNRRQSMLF

[9] = molecular target: Serine/threonine-protein kinase 17B (Homo sapiens) (UniProt O94768); conditions: Compound concentration 1000.0 nM
[10] = molecular target: Transient receptor potential cation channel subfamily M member 6 (Homo sapiens) (UniProt Q9BX84); conditions: Compound concentration 1000.0 nM
[11] = molecular target: Phosphatidylinositol 4,5-bisphosphate 3-kinase catalytic subunit delta isoform (Homo sapiens) (UniProt O00329); conditions: Compound concentration 1000.0 nM
[12] = molecular target: Serine/threonine-protein kinase SIK1 (Homo sapiens) (UniProt P57059); conditions: Compound concentration 1000.0 nM
Sequence of Serine/threonine-protein kinase SIK1 (Homo sapiens) (P57059 whole entry): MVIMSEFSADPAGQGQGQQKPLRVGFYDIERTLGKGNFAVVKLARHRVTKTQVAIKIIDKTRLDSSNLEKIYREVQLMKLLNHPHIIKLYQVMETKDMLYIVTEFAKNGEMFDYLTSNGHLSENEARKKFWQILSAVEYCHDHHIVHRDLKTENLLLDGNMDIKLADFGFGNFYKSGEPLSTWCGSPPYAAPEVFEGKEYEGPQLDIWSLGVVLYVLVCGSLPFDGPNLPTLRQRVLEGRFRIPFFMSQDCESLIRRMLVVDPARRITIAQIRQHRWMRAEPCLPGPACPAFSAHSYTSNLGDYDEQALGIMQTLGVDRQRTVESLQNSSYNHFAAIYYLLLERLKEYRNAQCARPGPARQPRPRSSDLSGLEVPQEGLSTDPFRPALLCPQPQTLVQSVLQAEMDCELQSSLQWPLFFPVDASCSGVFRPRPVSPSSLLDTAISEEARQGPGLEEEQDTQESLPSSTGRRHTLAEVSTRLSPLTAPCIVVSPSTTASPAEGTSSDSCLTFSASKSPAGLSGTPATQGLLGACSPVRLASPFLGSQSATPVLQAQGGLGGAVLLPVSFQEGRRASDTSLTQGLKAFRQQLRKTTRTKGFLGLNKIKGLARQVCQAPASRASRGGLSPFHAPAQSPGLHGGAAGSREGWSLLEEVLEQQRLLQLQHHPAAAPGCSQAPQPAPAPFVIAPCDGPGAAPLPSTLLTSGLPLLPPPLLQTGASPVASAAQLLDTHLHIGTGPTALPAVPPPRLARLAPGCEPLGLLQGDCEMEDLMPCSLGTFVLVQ

[13] = molecular target: Homeodomain-interacting protein kinase 1 (Homo sapiens) (UniProt Q86Z02); conditions: Compound concentration 1000.0 nM
[14] = molecular target: Tyrosine-protein kinase CSK (Homo sapiens) (UniProt P41240); conditions: Compound concentration 1000.0 nM
[15] = molecular target: Dual specificity protein kinase CLK4 (Homo sapiens) (UniProt Q9HAZ1); conditions: Compound concentration 1000.0 nM
[16] = molecular target: T3, Serine/threonine-protein kinase Sgk2 (Homo sapiens) (UniProt Q9HBY8); conditions: Compound concentration 1000.0 nM
T3 sequence (whole entry): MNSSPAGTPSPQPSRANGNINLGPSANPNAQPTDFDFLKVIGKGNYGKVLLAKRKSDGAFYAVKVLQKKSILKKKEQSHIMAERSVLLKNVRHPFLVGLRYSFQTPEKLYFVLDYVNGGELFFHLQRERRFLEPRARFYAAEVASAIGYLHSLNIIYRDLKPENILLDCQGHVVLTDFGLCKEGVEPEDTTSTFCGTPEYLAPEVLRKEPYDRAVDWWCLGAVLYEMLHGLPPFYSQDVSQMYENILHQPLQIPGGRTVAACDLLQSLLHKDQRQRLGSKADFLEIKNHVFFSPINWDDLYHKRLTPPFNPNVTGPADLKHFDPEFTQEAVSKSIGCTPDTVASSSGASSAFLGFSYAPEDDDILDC

[17] = molecular target: Serine/threonine-protein kinase TBK1 (Homo sapiens) (UniProt Q9UHD2); conditions: Compound concentration 1000.0 nM
Sequence of Serine/threonine-protein kinase TBK1 (Homo sapiens) (Q9UHD2 whole entry): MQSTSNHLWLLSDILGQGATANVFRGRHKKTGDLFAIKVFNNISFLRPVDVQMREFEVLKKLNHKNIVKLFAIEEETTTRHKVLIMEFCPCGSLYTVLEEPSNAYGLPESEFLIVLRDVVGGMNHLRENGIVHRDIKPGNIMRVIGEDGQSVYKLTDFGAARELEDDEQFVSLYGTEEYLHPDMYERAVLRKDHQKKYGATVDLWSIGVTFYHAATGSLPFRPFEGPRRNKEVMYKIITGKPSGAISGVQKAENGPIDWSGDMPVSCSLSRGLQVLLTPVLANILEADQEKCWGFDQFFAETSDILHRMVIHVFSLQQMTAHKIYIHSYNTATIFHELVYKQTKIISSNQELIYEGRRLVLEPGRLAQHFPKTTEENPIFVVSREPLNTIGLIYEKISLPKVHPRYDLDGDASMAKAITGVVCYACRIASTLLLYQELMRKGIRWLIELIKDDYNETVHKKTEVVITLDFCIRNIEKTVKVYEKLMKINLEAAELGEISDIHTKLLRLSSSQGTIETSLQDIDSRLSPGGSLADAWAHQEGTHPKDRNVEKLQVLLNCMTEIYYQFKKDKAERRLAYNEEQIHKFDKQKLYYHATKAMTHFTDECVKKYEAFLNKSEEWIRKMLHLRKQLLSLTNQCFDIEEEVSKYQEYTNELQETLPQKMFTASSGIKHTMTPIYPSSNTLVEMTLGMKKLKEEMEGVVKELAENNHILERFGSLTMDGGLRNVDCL

[18] = tested on: Receptor-type tyrosine-protein kinase FLT3 (Homo sapiens), P36888 [D835H]; conditions: Compound concentration 1000.0 nM
[19] = molecular target: Serine/threonine-protein kinase Nek7 (Homo sapiens) (UniProt Q8TDX7); conditions: Compound concentration 1000.0 nM
Sequence of Serine/threonine-protein kinase Nek7 (Homo sapiens) (Q8TDX7 whole entry, looked up): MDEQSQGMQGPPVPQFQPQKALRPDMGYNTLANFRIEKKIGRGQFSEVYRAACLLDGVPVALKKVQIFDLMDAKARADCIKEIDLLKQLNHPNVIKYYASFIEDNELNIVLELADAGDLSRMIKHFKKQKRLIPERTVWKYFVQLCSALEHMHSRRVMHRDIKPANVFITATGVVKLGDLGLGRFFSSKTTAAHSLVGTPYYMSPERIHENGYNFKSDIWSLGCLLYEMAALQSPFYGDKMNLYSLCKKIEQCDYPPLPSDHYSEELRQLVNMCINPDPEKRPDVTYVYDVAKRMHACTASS

Sequence of 5'-AMP-activated protein kinase catalytic subunit alpha-2 (Homo sapiens) (P54646 whole entry, looked up, canonical isoform): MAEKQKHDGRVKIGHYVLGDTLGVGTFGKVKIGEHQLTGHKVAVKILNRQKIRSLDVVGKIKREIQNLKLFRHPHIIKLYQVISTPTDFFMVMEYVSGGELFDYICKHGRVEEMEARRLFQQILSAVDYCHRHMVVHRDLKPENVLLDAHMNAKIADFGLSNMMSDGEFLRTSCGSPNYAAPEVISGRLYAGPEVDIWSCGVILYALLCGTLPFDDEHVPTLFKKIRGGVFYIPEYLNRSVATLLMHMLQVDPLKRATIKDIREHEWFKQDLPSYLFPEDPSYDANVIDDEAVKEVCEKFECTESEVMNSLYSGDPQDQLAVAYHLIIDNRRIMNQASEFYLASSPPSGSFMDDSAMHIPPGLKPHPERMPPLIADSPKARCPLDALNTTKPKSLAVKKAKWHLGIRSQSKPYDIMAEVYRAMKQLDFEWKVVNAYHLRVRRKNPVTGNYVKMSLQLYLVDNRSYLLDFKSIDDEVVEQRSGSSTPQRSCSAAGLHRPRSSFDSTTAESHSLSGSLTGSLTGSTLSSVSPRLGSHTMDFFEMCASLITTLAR
Sequence of Phosphatidylinositol 4,5-bisphosphate 3-kinase catalytic subunit alpha isoform (Homo sapiens), P42336 [M1043I] (P42336 whole entry M1043I, canonical isoform): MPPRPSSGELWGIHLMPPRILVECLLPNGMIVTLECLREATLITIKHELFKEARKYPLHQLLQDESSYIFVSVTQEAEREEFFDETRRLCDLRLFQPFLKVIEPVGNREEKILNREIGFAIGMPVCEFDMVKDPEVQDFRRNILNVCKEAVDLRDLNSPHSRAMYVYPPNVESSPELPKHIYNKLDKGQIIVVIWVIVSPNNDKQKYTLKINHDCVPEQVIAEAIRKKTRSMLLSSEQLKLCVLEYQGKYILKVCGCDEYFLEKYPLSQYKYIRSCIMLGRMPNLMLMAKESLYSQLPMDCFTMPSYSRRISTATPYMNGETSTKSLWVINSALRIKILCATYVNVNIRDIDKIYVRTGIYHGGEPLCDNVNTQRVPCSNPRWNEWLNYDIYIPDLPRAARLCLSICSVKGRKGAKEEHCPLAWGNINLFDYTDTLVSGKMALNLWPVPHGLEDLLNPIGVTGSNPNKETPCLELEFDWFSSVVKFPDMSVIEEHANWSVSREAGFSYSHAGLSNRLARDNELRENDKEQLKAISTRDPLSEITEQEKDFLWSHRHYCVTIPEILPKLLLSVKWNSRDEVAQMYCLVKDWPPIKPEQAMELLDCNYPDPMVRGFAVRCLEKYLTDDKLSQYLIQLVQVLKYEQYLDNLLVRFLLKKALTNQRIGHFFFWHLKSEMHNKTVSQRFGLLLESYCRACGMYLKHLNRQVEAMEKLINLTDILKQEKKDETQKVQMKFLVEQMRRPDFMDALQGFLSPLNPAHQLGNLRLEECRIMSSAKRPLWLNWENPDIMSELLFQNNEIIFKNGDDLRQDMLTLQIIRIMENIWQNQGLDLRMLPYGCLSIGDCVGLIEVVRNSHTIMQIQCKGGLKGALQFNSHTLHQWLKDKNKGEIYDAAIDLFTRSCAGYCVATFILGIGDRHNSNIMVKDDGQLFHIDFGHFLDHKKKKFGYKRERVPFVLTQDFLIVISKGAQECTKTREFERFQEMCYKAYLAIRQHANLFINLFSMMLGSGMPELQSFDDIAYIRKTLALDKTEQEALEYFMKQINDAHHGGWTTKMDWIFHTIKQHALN

CN(C)C(=O)Cn1cc(-c2nc(C3(c4ccc(-c5cnc(N)nc5)cc4)CC3)no2)cn1 [BI 0153]
residual activity [1]: 86%
residual activity [2]: 100%
residual activity [3]: 89%
residual activity [4]: 41%
residual activity [5]: 95%
inhibition [6]: 22.4%
residual activity [7]: 91%
residual activity [8]: 100%
residual activity [9]: 100%
residual activity [10]: 86%
residual activity [11]: 100%
residual activity [12]: 86%
residual activity [13]: 63%
residual activity [14]: 100%
residual activity [15]: 89%
residual activity [16]: 100%
residual activity [17]: 87%
residual activity [18]: 93%
residual activity [19]: 100%

CN(C)C(=O)Cn1cc(-c2nc([C@@](C)(c3ccc(-c4cnc(N)nc4)cc3)C3CC3)no2)cn1 [BI 665915]
residual activity [1]: 100%
residual activity [2]: 100%
residual activity [3]: 100%
residual activity [4]: 96%
residual activity [5]: 88%
inhibition [6]: -3.33%
residual activity [7]: 85%
residual activity [8]: 96%
residual activity [9]: 88%
residual activity [10]: 78%
residual activity [11]: 93%
residual activity [12]: 52%
residual activity [13]: 96%
residual activity [14]: 100%
residual activity [15]: 99%
residual activity [16]: 83%
residual activity [17]: 85%
residual activity [18]: 86%
residual activity [19]: 90%
